Like-named read-outs stand apart in the source and are kept apart here.
How the values were obtained:
Format in all cases: biochemical
PI3Kβ = biological target: T1, PI3Kβ (Homo sapiens, UniProt P42338); experiment: TR-FRET enzymatic activity assay, PI3Kβ
T1 construct: made in house
Protocol: (§1) The compounds of formula (I) were characterized for their enzymatic activity against the PI3K isoforms. The activities were measured using a time-resolved fluorescence resonance energy transfer (TR-FRET) assay.

PI3Kδ = biological target: T2, PI3Kδ (Homo sapiens, UniProt O00329); experiment: TR-FRET enzymatic activity assay, PI3Kδ
T2 construct: made in house
Protocol: as §1

PI3Kγ = biological target: T3, PI3Kγ (Homo sapiens, UniProt P48736); experiment: TR-FRET enzymatic activity assay, PI3Kγ
T3 construct: made in house
Protocol: as §1

[1] = recombinant heterodimeric PI3Kβ 25-50 pM, 2× Km ATP, 30 minutes at 25°C
[2] = recombinant heterodimeric PI3Kδ 25-50 pM, 2× Km ATP, 30 minutes at 25°C
[3] = recombinant heterodimeric PI3Kγ 2 nM, 2× Km ATP, 30 minutes at 25°C

T3 sequence (P48736 whole entry): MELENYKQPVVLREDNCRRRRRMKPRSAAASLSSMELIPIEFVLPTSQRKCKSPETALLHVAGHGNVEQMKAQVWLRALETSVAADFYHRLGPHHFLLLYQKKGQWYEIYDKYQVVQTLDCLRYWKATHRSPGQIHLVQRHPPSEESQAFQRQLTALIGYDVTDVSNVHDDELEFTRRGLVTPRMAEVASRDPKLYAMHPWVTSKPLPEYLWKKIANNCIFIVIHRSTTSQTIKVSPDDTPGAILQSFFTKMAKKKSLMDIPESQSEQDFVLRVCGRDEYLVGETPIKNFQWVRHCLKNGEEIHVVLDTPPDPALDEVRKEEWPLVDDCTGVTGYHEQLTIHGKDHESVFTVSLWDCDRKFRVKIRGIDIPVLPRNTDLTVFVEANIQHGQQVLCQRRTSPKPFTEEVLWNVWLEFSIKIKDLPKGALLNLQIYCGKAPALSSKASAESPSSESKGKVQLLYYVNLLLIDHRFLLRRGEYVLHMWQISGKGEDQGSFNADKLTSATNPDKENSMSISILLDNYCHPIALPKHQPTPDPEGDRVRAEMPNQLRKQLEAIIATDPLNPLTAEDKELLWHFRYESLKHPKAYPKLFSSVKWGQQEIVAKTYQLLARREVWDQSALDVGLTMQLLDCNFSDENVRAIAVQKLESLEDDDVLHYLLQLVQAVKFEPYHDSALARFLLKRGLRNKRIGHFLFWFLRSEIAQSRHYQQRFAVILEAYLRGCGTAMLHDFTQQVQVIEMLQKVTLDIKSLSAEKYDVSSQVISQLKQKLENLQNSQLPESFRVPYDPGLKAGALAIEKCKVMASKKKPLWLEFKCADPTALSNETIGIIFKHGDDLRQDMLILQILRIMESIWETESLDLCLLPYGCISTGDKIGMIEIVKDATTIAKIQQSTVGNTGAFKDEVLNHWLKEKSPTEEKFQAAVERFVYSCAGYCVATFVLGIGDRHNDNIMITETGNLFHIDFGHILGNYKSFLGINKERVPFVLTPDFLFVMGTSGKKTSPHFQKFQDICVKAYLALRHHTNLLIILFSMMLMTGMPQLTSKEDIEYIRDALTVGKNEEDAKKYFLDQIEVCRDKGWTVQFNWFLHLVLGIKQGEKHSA
T3 sequence (Q8WYR1 whole entry partner): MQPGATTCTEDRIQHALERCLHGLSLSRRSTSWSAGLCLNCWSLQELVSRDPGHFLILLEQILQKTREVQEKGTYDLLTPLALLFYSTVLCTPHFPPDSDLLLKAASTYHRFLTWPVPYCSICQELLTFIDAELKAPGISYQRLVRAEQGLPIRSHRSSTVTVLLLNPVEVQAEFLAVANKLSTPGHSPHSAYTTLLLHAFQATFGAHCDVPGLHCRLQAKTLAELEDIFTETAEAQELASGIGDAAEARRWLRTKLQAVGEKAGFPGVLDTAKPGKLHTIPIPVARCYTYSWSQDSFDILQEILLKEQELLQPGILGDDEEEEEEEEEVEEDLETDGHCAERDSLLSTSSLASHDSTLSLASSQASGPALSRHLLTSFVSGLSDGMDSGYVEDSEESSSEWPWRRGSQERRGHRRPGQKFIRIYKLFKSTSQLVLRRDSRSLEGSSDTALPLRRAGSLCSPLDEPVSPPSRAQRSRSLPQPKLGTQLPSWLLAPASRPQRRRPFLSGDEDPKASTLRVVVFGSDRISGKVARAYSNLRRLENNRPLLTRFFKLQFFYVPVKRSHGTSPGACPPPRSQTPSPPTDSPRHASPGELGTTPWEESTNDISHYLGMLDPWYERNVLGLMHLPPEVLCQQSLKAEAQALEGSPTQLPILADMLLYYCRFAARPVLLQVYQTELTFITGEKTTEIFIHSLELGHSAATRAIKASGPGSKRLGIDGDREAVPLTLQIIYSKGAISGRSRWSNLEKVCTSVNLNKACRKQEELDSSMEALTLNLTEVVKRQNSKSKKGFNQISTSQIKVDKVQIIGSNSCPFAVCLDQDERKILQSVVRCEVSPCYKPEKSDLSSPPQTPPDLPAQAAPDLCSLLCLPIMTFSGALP
T2 sequence (O00329 whole entry): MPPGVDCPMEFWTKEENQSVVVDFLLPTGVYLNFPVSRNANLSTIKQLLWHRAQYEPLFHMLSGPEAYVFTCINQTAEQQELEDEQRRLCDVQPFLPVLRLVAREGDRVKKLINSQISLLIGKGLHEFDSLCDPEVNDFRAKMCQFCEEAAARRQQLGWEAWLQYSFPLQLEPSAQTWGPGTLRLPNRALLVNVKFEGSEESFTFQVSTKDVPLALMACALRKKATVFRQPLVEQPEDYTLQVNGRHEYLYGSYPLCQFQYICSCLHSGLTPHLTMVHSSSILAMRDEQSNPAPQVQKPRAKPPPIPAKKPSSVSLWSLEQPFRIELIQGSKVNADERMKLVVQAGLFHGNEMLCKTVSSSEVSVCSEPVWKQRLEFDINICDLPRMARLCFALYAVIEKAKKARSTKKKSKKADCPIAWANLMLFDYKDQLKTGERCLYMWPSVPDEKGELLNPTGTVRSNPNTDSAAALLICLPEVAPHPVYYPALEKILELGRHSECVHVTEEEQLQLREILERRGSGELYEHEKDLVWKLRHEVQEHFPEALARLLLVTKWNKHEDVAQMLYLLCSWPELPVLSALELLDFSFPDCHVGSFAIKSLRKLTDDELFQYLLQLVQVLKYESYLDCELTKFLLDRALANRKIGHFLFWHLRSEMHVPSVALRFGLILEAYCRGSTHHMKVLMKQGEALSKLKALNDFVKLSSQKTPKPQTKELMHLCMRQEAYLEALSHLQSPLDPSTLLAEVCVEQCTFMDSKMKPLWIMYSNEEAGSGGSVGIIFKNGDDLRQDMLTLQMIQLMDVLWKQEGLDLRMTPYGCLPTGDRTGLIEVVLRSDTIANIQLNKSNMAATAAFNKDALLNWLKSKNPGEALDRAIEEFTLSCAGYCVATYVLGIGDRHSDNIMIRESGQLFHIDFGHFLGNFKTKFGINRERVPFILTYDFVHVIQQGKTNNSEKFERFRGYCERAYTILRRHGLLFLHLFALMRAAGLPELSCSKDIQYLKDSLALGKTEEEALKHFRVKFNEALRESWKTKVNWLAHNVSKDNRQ
T2 sequence (P27986 whole entry partner): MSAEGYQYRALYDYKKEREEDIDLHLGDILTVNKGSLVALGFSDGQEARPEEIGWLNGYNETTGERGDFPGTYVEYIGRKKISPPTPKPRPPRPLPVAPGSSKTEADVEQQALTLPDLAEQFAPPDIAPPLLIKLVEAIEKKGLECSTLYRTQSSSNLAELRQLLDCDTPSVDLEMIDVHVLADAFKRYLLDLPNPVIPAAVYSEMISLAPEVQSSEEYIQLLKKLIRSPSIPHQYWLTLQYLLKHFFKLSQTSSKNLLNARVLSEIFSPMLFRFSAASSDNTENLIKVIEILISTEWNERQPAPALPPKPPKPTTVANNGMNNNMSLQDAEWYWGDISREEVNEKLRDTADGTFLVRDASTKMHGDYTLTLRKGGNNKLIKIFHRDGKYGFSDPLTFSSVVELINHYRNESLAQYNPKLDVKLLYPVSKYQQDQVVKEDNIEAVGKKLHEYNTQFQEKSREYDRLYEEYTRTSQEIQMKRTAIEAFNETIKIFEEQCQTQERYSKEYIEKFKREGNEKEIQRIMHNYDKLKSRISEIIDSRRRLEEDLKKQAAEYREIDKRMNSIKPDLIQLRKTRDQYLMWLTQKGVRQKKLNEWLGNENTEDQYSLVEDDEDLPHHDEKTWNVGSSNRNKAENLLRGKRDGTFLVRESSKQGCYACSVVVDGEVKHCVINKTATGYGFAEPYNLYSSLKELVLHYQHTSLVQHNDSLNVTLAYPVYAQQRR
T1 sequence (P42338 whole entry): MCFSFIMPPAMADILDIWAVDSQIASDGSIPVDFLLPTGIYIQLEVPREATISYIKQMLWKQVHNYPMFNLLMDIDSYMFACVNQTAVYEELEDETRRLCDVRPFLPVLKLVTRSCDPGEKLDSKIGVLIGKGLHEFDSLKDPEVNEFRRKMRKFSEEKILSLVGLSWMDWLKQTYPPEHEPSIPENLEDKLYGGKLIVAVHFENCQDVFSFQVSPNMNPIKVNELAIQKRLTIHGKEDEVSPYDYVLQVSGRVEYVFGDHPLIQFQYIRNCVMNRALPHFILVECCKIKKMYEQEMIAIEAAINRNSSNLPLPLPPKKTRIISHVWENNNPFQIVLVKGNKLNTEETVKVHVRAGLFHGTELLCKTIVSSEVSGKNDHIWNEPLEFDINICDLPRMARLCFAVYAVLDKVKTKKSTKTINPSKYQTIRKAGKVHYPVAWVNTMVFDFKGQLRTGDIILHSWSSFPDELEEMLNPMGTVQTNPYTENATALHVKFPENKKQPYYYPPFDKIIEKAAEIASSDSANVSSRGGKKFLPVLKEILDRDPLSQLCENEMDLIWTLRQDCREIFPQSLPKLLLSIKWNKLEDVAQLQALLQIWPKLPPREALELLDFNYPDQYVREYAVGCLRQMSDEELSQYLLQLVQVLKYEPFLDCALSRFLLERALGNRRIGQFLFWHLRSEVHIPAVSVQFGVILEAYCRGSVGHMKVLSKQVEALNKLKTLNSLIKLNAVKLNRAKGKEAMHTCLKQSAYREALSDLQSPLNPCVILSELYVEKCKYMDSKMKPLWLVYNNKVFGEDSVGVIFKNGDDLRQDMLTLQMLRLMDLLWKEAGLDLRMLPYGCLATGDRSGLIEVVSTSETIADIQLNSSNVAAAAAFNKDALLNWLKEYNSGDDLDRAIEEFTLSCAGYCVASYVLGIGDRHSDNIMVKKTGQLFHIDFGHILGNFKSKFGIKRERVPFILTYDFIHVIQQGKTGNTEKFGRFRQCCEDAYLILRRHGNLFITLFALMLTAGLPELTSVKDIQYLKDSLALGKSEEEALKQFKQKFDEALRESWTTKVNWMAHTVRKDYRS
T1 sequence (P27986 whole entry partner): as the sequence (P27986 whole entry partner) above

With `C[C@H](Nc1ncnc2scc(Cl)c12)c1nc2cccc(Cl)c2c(=O)n1N1CCNCC1` [Compound 35, (S)-5-chloro-2-(1-((5-chlorothieno[2,3-d]pyrimidin-4-yl)amino)ethyl)-3-(piperazin-1-yl)quinazolin-4(3H)-one] the IC50 (PI3Kβ; [1]) was 570 nM, the IC50 (PI3Kδ; [2]) was 93 nM and the IC50 (PI3Kγ; [3]) was over 10000 nM.

`C[C@H](NC(=O)c1c(N)nn2cccnc12)c1nc2cccc(Cl)c2c(=O)n1N1CCNCC1` [Compound 36, (S)-2-amino-N-(1-(5-chloro-4-oxo-3-(piperazin-1-yl)-3,4-dihydroquinazolin-2-yl)ethyl)pyrazolo[1,5-a]pyrimidine-3-carboxamide] showed an IC50 (PI3Kβ; [1]) of 6 nM, an IC50 (PI3Kδ; [2]) of 56 nM and an IC50 (PI3Kγ; [3]) of 5700 nM.

In the case of `C[C@H](Nc1ncnc(N)c1Cl)c1nc2cccc(Cl)c2c(=O)n1N1CCNCC1` [Compound 37, (S)-2-(1-((6-amino-5-chloropyrimidin-4-yl)amino)ethyl)-5-chloro-3-(piperazin-1-yl)quinazolin-4(3H)-one], the IC50 (PI3Kβ; [1]) is reported as 39 nM, the IC50 (PI3Kδ; [2]) is reported as 3 nM and the IC50 (PI3Kγ; [3]) is reported as over 10000 nM.

`C[C@H](Nc1nc(N)nc(N)c1C#N)c1nc2cccc(Cl)c2c(=O)n1C1CCNCC1(F)F` (stereo partly drawn) [Compound 38, 2,4-diamino-6-(((1S)-1-(5-chloro-3-(3,3-difluoropiperidin-4-yl)-4-oxo-3,4-dihydroquinazolin-2-yl)ethyl)amino)pyrimidine-5-carbonitrile] was tested, and the IC50 (PI3Kβ; [1]) was 220 nM, the IC50 (PI3Kδ; [2]) was 6 nM and the IC50 (PI3Kγ; [3]) was 1500 nM.

With `C[C@H](Nc1nc(N)nc(N)c1C#N)c1nc2c(F)ccc(F)c2c(=O)n1N1CCNCC1` [Compound 39, (S)-2,4-diamino-6-((1-(5,8-difluoro-4-oxo-3-(piperazin-1-yl)-3,4-dihydroquinazolin-2-yl)ethyl)amino)pyrimidine-5-carbonitrile] the IC50 (PI3Kβ; [1]) was 4 nM, the IC50 (PI3Kδ; [2]) was 3 nM and the IC50 (PI3Kγ; [3]) was 5400 nM.

Work on `C[C@H](Nc1ncnn2ccnc12)c1nc2c(F)ccc(F)c2c(=O)n1N1CCNCC1` [Compound 40, (S)-5,8-difluoro-2-(1-(imidazo[2,1-f][1,2,4]triazin-4-ylamino)ethyl)-3-(piperazin-1-yl)quinazolin-4(3H)-one] yielded an IC50 (PI3Kβ; [1]) of 200 nM, an IC50 (PI3Kδ; [2]) of 26 nM and an IC50 (PI3Kγ; [3]) of over 10000 nM.

Work on `O=c1c2c(F)ccc(F)c2nc([C@@H](Nc2ncnn3ccnc23)C2CC2)n1N1CCNCC1` [Compound 41, (S)-2-(cyclopropyl(imidazo[2,1-f][1,2,4]triazin-4-ylamino)methyl)-5,8-difluoro-3 - (piperazin-1-yl)quinazolin-4(3H)-one] yielded an IC50 (PI3Kβ; [1]) of 210 nM, an IC50 (PI3Kδ; [2]) of 24 nM and an IC50 (PI3Kγ; [3]) of over 10000 nM.

For `CC[C@H](Nc1ncnn2ccnc12)c1nc2cccc(Cl)c2c(=O)n1N1CCNCC1` [Compound 42, (S)-5-chloro-2-(1-(imidazo[2,1-f][1,2,4]triazin-4-ylamino)propyl)-3-(piperazin-1-yl)quinazolin-4(3H)-one], the IC50 (PI3Kβ; [1]) was 45 nM, the IC50 (PI3Kδ; [2]) was 8 nM and the IC50 (PI3Kγ; [3]) was over 10000 nM.

Molecule `O=c1c2c(Cl)cccc2nc([C@@H](Nc2ncnn3ccnc23)C2CC2)n1N1CCNCC1` [Compound 43, (S)-5-chloro-2-(cyclopropyl(imidazo[2,1-f][1,2,4]triazin-4-ylamino)methyl)-3-(piperazin-1-yl)quinazolin-4(3H)-one] has an IC50 (PI3Kβ; [1]) of 30 nM, an IC50 (PI3Kδ; [2]) of 4 nM and an IC50 (PI3Kγ; [3]) of over 10000 nM.

Molecule `CC[C@H](Nc1nc(N)nc(C)c1C#N)c1nc2cccc(Cl)c2c(=O)n1N1CCNCC1` [Compound 44, (S)-2-amino-4-((1-(5-chloro-4-oxo-3-(piperazin-1-yl)-3,4-dihydroquinazolin-2-yl)propyl)amino)-6-methylpyrimidine-5-carbonitrile] has an IC50 (PI3Kβ; [1]) of 2 nM, an IC50 (PI3Kδ; [2]) of 1 nM and an IC50 (PI3Kγ; [3]) of 1800 nM.

`Cc1nc(N)nc(N[C@H](c2nc3cccc(Cl)c3c(=O)n2N2CCNCC2)C2CC2)c1C#N` [Compound 46, (S)-2-amino-4-(((5-chloro-4-oxo-3-(piperazin-1-yl)-3,4-dihydroquinazolin-2-yl)(cyclopropyl)methyl)amino)-6-methylpyrimidine-5-carbonitrile] was tested, and the IC50 (PI3Kβ; [1]) was 2 nM, the IC50 (PI3Kδ; [2]) was 1 nM and the IC50 (PI3Kγ; [3]) was 2600 nM.

`O=c1c2c(Cl)ccc(F)c2nc([C@@H](Nc2ncnn3ccnc23)C2CC2)n1N1CCNCC1` [Compound 47, (S)-5-chloro-2-(cyclopropyl(imidazo[2,1-f][1,2,4]triazin-4-ylamino)methyl)-8-fluoro-3-(piperazin-1-yl)quinazolin-4(3H)-one] gave an IC50 (PI3Kβ; [1]) of 48 nM, an IC50 (PI3Kδ; [2]) of 5 nM and an IC50 (PI3Kγ; [3]) of over 10000 nM.

Work on `N#Cc1c(N)nc(N)nc1N[C@H](c1nc2c(F)ccc(Cl)c2c(=O)n1N1CCNCC1)C1CC1` [Compound 48, (S)-2,4-diamino-6-(((5-chloro-8-fluoro-4-oxo-3-(piperazin-1-yl)-3,4-dihydroquinazolin-2-yl)(cyclopropyl)methyl)amino)pyrimidine-5-carbonitrile] yielded an IC50 (PI3Kβ; [1]) of 3 nM, an IC50 (PI3Kδ; [2]) of 1 nM and an IC50 (PI3Kγ; [3]) of 3300 nM.

`C[C@H](Nc1ncnc2scnc12)c1nc2c(Cl)ccc(Cl)c2c(=O)n1N1CCNCC1` [Compound 49, (S)-5,8-dichloro-3-(piperazin-1-yl)-2-(1-(thiazolo[5,4-d]pyrimidin-7-ylamino)ethyl)quinazolin-4(3H)-one] showed an IC50 (PI3Kβ; [1]) of 19 nM, an IC50 (PI3Kδ; [2]) of 2 nM and an IC50 (PI3Kγ; [3]) of over 10000 nM.

For `C[C@H](Nc1ncnc2scnc12)c1nc2c(F)ccc(Cl)c2c(=O)n1N1CCNCC1` [Compound 50, (S)-5-chloro-8-fluoro-3-(piperazin-1-yl)-2-(1-(thiazolo[5,4-d]pyrimidin-7-ylamino)ethyl)quinazolin-4(3H)-one], the IC50 (PI3Kβ; [1]) was 15 nM, the IC50 (PI3Kδ; [2]) was 2 nM and the IC50 (PI3Kγ; [3]) was over 10000 nM.

In the case of `C[C@H](Nc1ncnc2ccc(Cl)nc12)c1nc2c(Cl)ccc(Cl)c2c(=O)n1N1CCNCC1` [Compound 52, (S)-5,8-dichloro-2-(1-((6-chloropyrido[3,2-d]pyrimidin-4-yl)amino)ethyl)-3-(piperazinl-yl)quinazolin-4(3H)-one], the IC50 (PI3Kβ) is reported as 8 nM, the IC50 (PI3Kδ) is reported as 3 nM and the IC50 (PI3Kγ) is reported as 3100 nM.

For `C[C@H](Nc1nc(N)nc(N)c1C#N)c1nc2c(F)ccc(Cl)c2c(=O)n1N1CCNCC1` [Compound 54, (S)-2,4-diamino-6-((1-(5-chloro-8-fluoro-4-oxo-3-(piperazin-1-yl)-3,4-dihydroquinazolin-2-yl)ethyl)amino)pyrimidine-5-carbonitrile], the IC50 (PI3Kβ; [1]) was 4 nM, the IC50 (PI3Kδ; [2]) was 2 nM and the IC50 (PI3Kγ; [3]) was 1900 nM.

`C[C@H](Nc1ncnc(N)c1C#N)c1nc2cccc(Cl)c2c(=O)n1N1CCNCC1` [Compound 55, (S)-4-amino-6-((1-(5-chloro-4-oxo-3-(piperazin-1-yl)-3,4-dihydroquinazolin-2-yl)ethyl)amino)pyrimidine-5-carbonitrile] was tested, and the IC50 (PI3Kβ; [1]) was 14 nM, the IC50 (PI3Kδ; [2]) was 1 nM and the IC50 (PI3Kγ; [3]) was over 10000 nM.

Work on `C[C@H](Nc1ncnc(N)c1C#Cc1ccc(F)cn1)c1nc2cccc(Cl)c2c(=O)n1N1CCNCC1` [Compound 58, (S)-2-(1-((6-amino-5-((5-fluoropyridin-2-yl)ethynyl)pyrimidin-4-yl)amino)ethyl)-5-chloro-3-(piperazin-1-yl)quinazolin-4(3H)-one] yielded an IC50 (PI3Kβ; [1]) of 10 nM, an IC50 (PI3Kδ; [2]) of 2 nM and an IC50 (PI3Kγ; [3]) of over 10000 nM.

`Cc1nc(N)c(C(=O)N[C@@H](C)c2nc3cccc(Cl)c3c(=O)n2N2CCNCC2)nc1C` [Compound 59, (S)-3-amino-N-(1-(5-chloro-4-oxo-3-(piperazin-1-yl)-3,4-dihydroquinazolin-2-yl)ethyl)-5,6-dimethylpyrazine-2-carboxamide] gave an IC50 (PI3Kβ; [1]) of 73 nM, an IC50 (PI3Kδ; [2]) of 280 nM and an IC50 (PI3Kγ; [3]) of over 10000 nM.
